Measurements published in US10961200B2, “Small molecule inhibitors of lactate dehydrogenase and methods of use thereof” (THE UNITED STATES OF AMERICA, AS REPRESENTED BY THE …, priority 2014, dated 2021).

What follows are compounds tested against Human LDHA (Homo sapiens (Human), UniProt P00338) (assay: human LDHA primary biochemical assay (resazurin/diaphorase coupled, fluorescence)). Details: LDHA inhibitory activity, activity level based on IC50 (Table 7).
Excerpt: Test compounds were placed in a Greiner Bio-One (Monroe, N.C.) 1536-well black solid bottom assay plate. 200 millimolar (mM) Tris HCl, pH 7.4, 100 micromolar […] EDTA and 0.01% TWEEN-20™, final concentration, was used as the assay buffer. The LDHA reagent was 2 nanomolar (nM) Human LDHA (Meridian Life Science, Inc., Memphis, Tenn.), final concentration, in assay buffer.

`Cc1ccc(C#Cc2cccc(-c3nn(-c4nc(C(=O)O)cs4)c(CC4CC4)c3Cc3ccc(S(N)(=O)=O)c(F)c3)c2)s1` [Compound 449] and `CCCC#Cc1cc(-c2nn(-c3nc(C(=O)O)cs3)c(CC3CC3)c2Cc2ccc(S(N)(=O)=O)c(F)c2)ccc1F` [Compound 539, 2-(5-(cyclopropylmethyl)-3-(4-fluoro-3-(pent-1-yn-1-yl)phenyl)-4-(3-fluoro-4-sulfamoylbenzyl)-1H-pyrazol-1-yl)thiazole-4-carboxylic acid] cannot be ordered by IC50: less than 100 nM for the first, less than 100 nM for the second.

`COc1cccc(-c2cccc(-c3c(Cc4ccc([S+](N)(=O)[O-])c(F)c4)c(C4CC4)nn3-c3nc(C(=O)O)cs3)c2)c1` [Compound 352] and `NS(=O)(=O)c1ccc(Cc2c(C3CC3)nn(-c3nc(C(=O)O)cs3)c2-c2cccc(-c3cccc(F)c3)c2)c(F)c1` [Compound 358] fall in the same range of IC50: 1000 to 57000 nM for the first, 1000 to 57000 nM for the second.

`COc1ccc(-c2cc(-c3nn(-c4nc(C(=O)O)cs4)cc3Cc3ccc(S(N)(=O)=O)cc3)ccc2C)cc1F` [Compound 494, 2-(3-(3′-fluoro-4′-methoxy-6-methyl-[1,1′-biphenyl]-3-yl)-4-(4-sulfamoylbenzyl)-1H-pyrazol-1-yl)thiazole-4-carboxylic acid] and `Cc1ccc(-c2nn(-c3nc(C(=O)O)cs3)cc2Cc2ccc(S(N)(=O)=O)cc2)cc1-c1ccccc1` [Compound 491, 2-(3-(6-methyl-[1,1′-biphenyl]-3-yl)-4-(4-sulfamoylbenzyl)-1H-pyrazol-1-yl)thiazole-4-carboxylic acid] fall in the same range of IC50: 100 to 1000 nM for the first, 100 to 1000 nM for the second.

First: O=C(O)c1csc(-n2nc(-c3ccc(Cl)cc3)cc2C(F)(F)F)n1 [Compound 427]
Second: CC(C)=Cc1cc(-c2nn(-c3nc(C(=O)O)cs3)c(CC3CC3)c2Cc2ccc(S(N)(=O)=O)c(F)c2)ccc1F [Compound 530, 2-(5-(cyclopropylmethyl)-3-(4-fluoro-3-(2-methylprop-1-en-1-yl)phenyl)-4-(3-fluoro-4-sulfamoylbenzyl)-1H-pyrazol-1-yl)thiazole-4-carboxylic acid]
The IC50 of the first is higher: 1000 to 57000 nM for the first, less than 100 nM for the second.

Compared with `CCOC(=O)c1csc(-n2nc(-c3ccc(F)c(-c4ccc(C)cc4)c3)c(Cc3ccc(S(N)(=O)=O)c(F)c3)c2CC2CC2)n1` [Compound 343], `CCc1cccc(-c2cc(-c3nn(-c4nc(C(=O)O)cs4)cc3Cc3ccc(S(N)(=O)=O)cc3)ccc2F)c1` [Compound 513, 2-(3-(3′-ethyl-6-fluoro-[1,1′-biphenyl]-3-yl)-4-(4-sulfamoylbenzyl)-1H-pyrazol-1-yl)thiazole-4-carboxylic acid] is lower in IC50: 1000 to 57000 nM for the first, 100 to 1000 nM for the second. The second is the more potent here.

`CC(C)Oc1cccc(-c2nn(-c3nc(C(=O)O)cs3)cc2Cc2ccc(S(N)(=O)=O)cc2)c1` [Compound 459, 2-(3-(3-isopropoxyphenyl)-4-(4-sulfamoylbenzyl)-1H-pyrazol-1-yl)thiazole-4-carboxylic acid] and `NS(=O)(=O)c1ccc(Cc2cn(-c3nc(C(=O)O)cs3)nc2-c2cccc(Oc3ccccc3)c2)cc1` [Compound 464, 2-(3-(3-phenoxyphenyl)-4-(4-sulfamoylbenzyl)-1H-pyrazol-1-yl)thiazole-4-carboxylic acid] cannot be ordered by IC50: less than 100 nM for the first, less than 100 nM for the second.

`NS(=O)(=O)c1ccc(Cc2c(-c3cccc(-c4cccc(F)c4)c3)nn(-c3nc(C(=O)O)cs3)c2C2CC2)c(F)c1` [Compound 359] gave an IC50 of less than 100 nM.

Same assay, conditions: LDHA inhibitory activity, assay of Example 1; activity level classes

`O=C(O)c1csc(-n2nc(-c3cccc(N4CCOCC4)c3)cc2O)n1` [Compound 93, 2-(5-hydroxy-3-(3-morpholinophenyl)-1H-pyrazol-1-yl)thiazole-4-carboxylic acid] and `CS(=O)(=O)c1cccc(-c2cc(O)n(-c3nc(C(=O)O)cs3)n2)c1` [Compound 92, 2-(5-hydroxy-3-(3-(methylsulfonyl)phenyl)-1H-pyrazol-1-yl)thiazole-4-carboxylic acid] cannot be ordered by IC50: greater than 57000 nM for the first, greater than 57000 nM for the second.

`NS(=O)(=O)c1ccc(Cc2c(-c3ccc(F)c(-c4cccc(F)c4)c3)nn(-c3nc(C(=O)O)cs3)c2C2CC2)c(F)c1` [Compound 255] and `NS(=O)(=O)c1ccc(Cc2c(-c3ccc(F)c(-c4ccc(F)cc4)c3)nn(-c3nc(C(=O)O)cs3)c2C2CC2)c(F)c1` [Compound 254] cannot be ordered by IC50: less than 100 nM for the first, less than 100 nM for the second.

First: CCOC(=O)c1csc(-n2nc(-c3cccc(OC4CCCC4)c3)c(Cc3ccc(S(N)(=O)=O)cc3F)c2CC2CC2)n1 [Compound 335]
Second: COc1cccc(-c2cc(-c3nn(-c4nc(C(=O)O)cs4)c(CC4CC4)c3Cc3ccc(S(N)(=O)=O)cc3F)ccc2F)c1 [Compound 328]
The IC50 of the first is higher: 1000 to 57000 nM for the first, less than 100 nM for the second.

`NS(=O)(=O)c1ccc(Cc2cn(-c3nc(C(=O)O)cs3)nc2-c2ccc(F)c(F)c2)cc1` [Compound 41, 2-(3-(3,4-difluorophenyl)-4-(4-sulfamoylbenzyl)-1H-pyrazol-1-yl)thiazole-4-carboxylic acid] and `NS(=O)(=O)c1ccc(Cc2c(-c3ccccc3)nn(-c3nc(C(=O)O)cs3)c2C(F)(F)F)cc1` [Compound 44, 2-(3-phenyl-4-(4-sulfamoylbenzyl)-5-(trifluoromethyl)-1H-pyrazol-1-yl)thiazole-4-carboxylic acid] cannot be ordered by IC50: less than 100 nM for the first, less than 100 nM for the second.

`CCOC(=O)c1csc(-n2nc(-c3cccc(-c4ccccc4)c3)c(Cc3ccc(S(N)(=O)=O)cc3F)c2C2CC2)n1` [Compound 244] and `CCOC(=O)c1csc(-n2nc(-c3ccc(F)c(-c4cccc(OC)c4)c3)c(Cc3ccc(S(N)(=O)=O)c(F)c3)c2C2CC2)n1` [Compound 248] cannot be ordered by IC50: greater than 57000 nM for the first, greater than 57000 nM for the second.

First: CCOC(=O)c1csc(-n2nc(C3CCCC3)c(Oc3ccc(S(N)(=O)=O)cc3)c2-c2ccccc2)n1 [Compound 168, ethyl 2-(3-cyclopentyl-5-phenyl-4-(4-sulfamoylphenoxy)-1H-pyrazol-1-yl)thiazole-4-carboxylate]
Second: NS(=O)(=O)c1ccc(Cc2c(-c3cccnc3)nn(-c3nc(C(=O)O)cs3)c2O)cc1 [Compound 82, 2-(5-hydroxy-3-(pyridin-3-yl)-4-(4-sulfamoylbenzyl)-1H-pyrazol-1-yl)thiazole-4-carboxylic acid]
The IC50 of the first is higher: greater than 57000 nM for the first, 1000 to 57000 nM for the second.

First: Cc1ccc(-c2cc(-c3nn(-c4nc(C(=O)O)cs4)c(C4CC4)c3Cc3ccc(S(N)(=O)=O)c(F)c3)ccc2F)cc1 [Compound 249]
Second: Cc1ccc(-c2cc(-c3c(Cc4ccc(S(N)(=O)=O)cc4F)c(CC4CC4)nn3-c3nc(C(=O)O)cs3)ccc2F)cc1 [Compound 285]
The IC50 of the first is lower: less than 100 nM for the first, 1000 to 57000 nM for the second.

`O=C(O)c1csc(-n2nc(-c3c(F)cccc3F)cc2O)n1` [Compound 100, 2-(3-(2,6-difluorophenyl)-5-hydroxy-1H-pyrazol-1-yl)thiazole-4-carboxylic acid] and `O=C(O)c1csc(-n2nc(-c3cc(F)cc(F)c3)cc2O)n1` [Compound 95, 2-(3-(3,5-difluorophenyl)-5-hydroxy-1H-pyrazol-1-yl)thiazole-4-carboxylic acid] cannot be ordered by IC50: greater than 57000 nM for the first, greater than 57000 nM for the second.

Same assay, conditions: read-out: Inhibitory activity IC50

`CCOC(=O)c1csc(-n2nc(-c3ccc(F)c(F)c3)c(Cc3ccc(S(N)(=O)=O)cc3)c2N)n1` [Compound 123, ethyl 2-(5-amino-3-(3,4-difluorophenyl)-4-(4-sulfamoylbenzyl)-1H-pyrazol-1-yl)thiazole-4-carboxylate] and `CCOC(=O)c1csc(-n2nc(-c3ccccc3)c(Oc3ccc(S(N)(=O)=O)cc3)c2C2CC2)n1` [Compound 164, ethyl 2-(5-cyclopropyl-3-phenyl-4-(4-sulfamoylphenoxy)-1H-pyrazol-1-yl)thiazole-4-carboxylate] fall in the same range of IC50: 1000 to 57000 nM for the first, 1000 to 57000 nM for the second.

`NS(=O)(=O)c1ccc(Cc2cn(-c3nc(C(=O)O)cs3)c3cccc(CN4CCOCC4)c23)cc1` [Compound 193, 2-(4-(morpholinomethyl)-3-(4-sulfamoylbenzyl)-1H-indol-1-yl)thiazole-4-carboxylic acid] and `NS(=O)(=O)c1ccc(Cc2cn(-c3nc(C(=O)O)cs3)c3cc(CN4CCOCC4)ccc23)cc1` [Compound 192, 2-(6-(morpholinomethyl)-3-(4-sulfamoylbenzyl)-1H-indol-1-yl)thiazole-4-carboxylic acid] fall in the same range of IC50: 100 to 1000 nM for the first, 100 to 1000 nM for the second.

First: NS(=O)(=O)c1ccc(Cc2c(-c3ccccc3)nn(-c3nc(C(=O)O)cs3)c2C2CCCCC2)cc1 [Compound 177, 2-(5-cyclohexyl-3-phenyl-4-(4-sulfamoylbenzyl)-1H-pyrazol-1-yl)thiazole-4-carboxylic acid]
Second: NS(=O)(=O)c1ccc(Oc2c(-c3ccccc3)nn(-c3nc(C(=O)O)cs3)c2C2CCCC2)cc1 [Compound 171, 2-(5-cyclopentyl-3-phenyl-4-(4-sulfamoylphenoxy)-1H-pyrazol-1-yl)thiazole-4-carboxylic acid]
The IC50 of the first is higher: 1000 to 57000 nM for the first, 100 to 1000 nM for the second.

`NS(=O)(=O)c1ccc(Cc2cn(-c3nc(C(=O)O)cs3)c3cccc(Cc4ccccc4F)c23)cc1` [Compound 198, 2-(4-(2-fluorobenzyl)-3-(4-sulfamoylbenzyl)-1H-indol-1-yl)thiazole-4-carboxylic acid] and `NS(=O)(=O)c1ccc(Cc2cn(-c3nc(C(=O)O)cs3)c3ccncc23)cc1` [Compound 34, 2-(3-(4-sulfamoylbenzyl)-1H-pyrrolo[3,2-c]pyridin-1-yl)thiazole-4-carboxylic acid] fall in the same range of IC50: 100 to 1000 nM for the first, 100 to 1000 nM for the second.

`COc1cccc(-c2cc(-c3c(Cc4ccc([S+](N)(=O)[O-])c(F)c4)c(CC4CC4)nn3-c3nc(C(=O)O)cs3)ccc2F)c1` [Compound 329] and `N[S+](=O)([O-])c1ccc(Cc2c(CC3CC3)nn(-c3nc(C(=O)O)cs3)c2-c2ccc(F)c(-c3ccc(F)cc3)c2)c(F)c1` [Compound 308] fall in the same range of IC50: 1000 to 57000 nM for the first, 1000 to 57000 nM for the second.

`NS(=O)(=O)c1ccc(Cc2c(-c3ccccc3)nn(-c3nc(C(=O)O)cs3)c2C#Cc2ccccc2)cc1` [Compound 179, 2-(3-phenyl-5-(phenylethynyl)-4-(4-sulfamoylbenzyl)-1H-pyrazol-1-yl)thiazole-4-carboxylic acid] and `NS(=O)(=O)c1ccc(Cc2c(-c3cccc(-c4ccccc4)c3)nn(-c3nc(-c4nnn[nH]4)cs3)c2O)cc1` [Compound 72, 4-((1-(4-(1H-tetrazol-5-yl)thiazol-2-yl)-3-([1,1′-biphenyl]-3-yl)-5-hydroxy-1H-pyrazol-4-yl)methyl)benzenesulfonamide] fall in the same range of IC50: 1000 to 57000 nM for the first, 1000 to 57000 nM for the second.
